According to patent publication US20050148495A1, “Methods and materials including for treating acne” (priority 2003, published 2005):
Where two headings read alike, the source gives them in different places. Non-standard residues stand in square brackets, D forms with d. Residues, ends and D or L forms follow the SMILES beside them. d1Nal = N[C@H](Cc1cccc2ccccc12)C(=O)O

How the values were obtained:
Escherichia coli = test: microbe, parasite or virus in culture; format: cell-based
Description: (§1) Acne vulgaris may involve a microbial consortium. Although P. acnes may be a prominent member of such a consortium, other uncharacterized bacteria may also participate. The microbial activity of XMP.629 as an acetate gel as described in Example 5 and other commonly used antibiotics was evaluated against a panel of human pathogens using standardized NCCLS protocols. […] Lesser potency was observed against the gram-negative organisms B. fragilis, B. cepacia, P. mirabilis and S. marcescens, which are often refractory to many antimicrobial compounds.

Porphyromonas gingivalis = test: microbe, parasite or virus in culture; format: cell-based; conditions: Porphyromonas gingivalis 33277
Description: as §1

Burkholderia cepacia = test: microbe, parasite or virus in culture; format: cell-based; conditions: Burkholderia cepacia 25416
Description: as §1

Proteus mirabilis = test: microbe, parasite or virus in culture; format: cell-based; conditions: Proteus mirabilis 29852
Description: as §1

Klebsiella pneumoniae = test: microbe, parasite or virus in culture; format: cell-based
Description: as §1

Prevotella intermedia = test: microbe, parasite or virus in culture; format: cell-based; conditions: Prevotella intermedia 25261
Description: as §1

[1] = test system: Actinobacillus actinomycetemcomitans; test: microbe, parasite or virus in culture; format: cell-based; conditions: Actinobacillus actinomycetemcomitans 43718
Description: as §1

Salmonella ryphimurium = test: microbe, parasite or virus in culture; format: cell-based; conditions: Salmonella ryphimurium SL770
Description: as §1

Bacteroides fragilis = test: microbe, parasite or virus in culture; format: cell-based; conditions: Bacteroides fragilis 25285
Description: as §1

Serratia marcescens = test: microbe, parasite or virus in culture; format: cell-based
Description: as §1

[2] = [3H]-labeled XMP.629, 0.3 mg/kg intravenous, estimate
P. acnes = conditions: for MBC Range: in µg/mL
Description: An in vitro assessment of antibiotic activity in XMP.629 and various known antibiotics against a representative panel of bacterial strains associated with acne was conducted. A broth dilution methodology was employed using guidelines established by National Committee for Clinical Laboratory Standards (NCCLS) for anaerobic organisms to establish an antibacterial profile for XMP.629. Assays to determine the minimal bactericidal concentrations (MBC) and minimal inhibitory concentration (MIC) were conducted for XMP.629 and other known antibiotics.
Inoculum from a representative panel of bacterial strains associated with acne, such as P. acnes, P. avidum, P. granulosum, and Staphylococcus epidermis was prepared by suspending approximately 5-10 isolated bacterial colonies in pre-reduced MicroScan® Inoculum Water (Dade Behring, Deerfield, Ill.), and growing the bacterial suspension to log phase (approximately 48 hrs). An inoculum of between 1-5×10^6/mL was achieved by adding 100 μL of the suspension to 25 mL Brain Heart Infusion Broth (BHI) (Anaerobe Systems, Morgan Hill, Calif.).
A stock solution of XMP.629 dissolved in water at a concentration of 4.0 mg/mL was prepared. Dilute solutions of XMP.629 at concentrations ranging from about 1.25 to about 160 μg/mL were made in either water or formulation buffer (130 mM sodium chloride, 0.2% P103 (poloxamer 333), and 0.10% EDTA, pH 7.3).
Control tubes containing only water or formulation buffer were prepared for each isolate. Initial growth controls were determined by removing 10 μL from the water control tube and diluting it by 100 fold. From this dilution, 10 μL was used for inoculation and for spreading over the surface onto Laked Blood Agar (LBA) (Anaerobe Systems, Morgan Hill, Calif.) plates. The tubes and plates were incubated in an anaerobic atmosphere at 37° C. for 48 h.

[3] = ATCC 6919, Formulation Buffer Solvent, Study 1
[4] = ATCC 6919, Formulation Buffer Solvent, Study 2
[5] = ATCC 6919, Water Solvent, Study 1
[6] = ATCC 6919, Water Solvent, Study 2
[7] = ATCC 6919, XMP.629 composition of Example 5 (Table 12)
[8] = ATCC 11827, Formulation Buffer Solvent, Study 1
[9] = ATCC 11827, Formulation Buffer Solvent, Study 2
[10] = ATCC 11827, Water Solvent, Study 1
[11] = ATCC 11827, Water Solvent, Study 2
[12] = ATCC 11828, composition of Example 5
[13] = Clindamycin Resistant C678, composition of Example 5
[14] = Clindamycin Resistant C767, composition of Example 5
[15] = Clindamycin Resistant C768, composition of Example 5
[16] = Clindamycin Resistant C769, composition of Example 5
[17] = Clindamycin Resistant C770, composition of Example 5
[18] = P. acnes strains of Table 7, composition of Example 5
[19] = P. acnes, Clindamycin resistant, 16 strains
[20] = P. acnes, Clindamycin sensitive, 20 strains
[21] = Propionibacterium acnes, 36 strains/clinical isolates, formulation buffer
[22] = RMA 9833, Formulation Buffer Solvent, Study 1
[23] = RMA 9833, Formulation Buffer Solvent, Study 2
[24] = RMA 9833, Water Solvent, Study 1
[25] = RMA 9833, Water Solvent, Study 2
[26] = RMA 9833, composition of Example 5
[27] = RMA 12689, Formulation Buffer Solvent, Study 1
[28] = RMA 12689, Formulation Buffer Solvent, Study 2
[29] = RMA 12689, Water Solvent, Study 1
[30] = RMA 12689, Water Solvent, Study 2
[31] = RMA 12689, composition of Example 5
[32] = RMA 12732, Formulation Buffer Solvent, Study 1
[33] = RMA 12732, Formulation Buffer Solvent, Study 2
[34] = RMA 12732, Water Solvent, Study 1
[35] = RMA 12732, Water Solvent, Study 2
[36] = RMA 12908, Formulation Buffer Solvent, Study 1
[37] = RMA 12908, Formulation Buffer Solvent, Study 2
[38] = RMA 12908, Water Solvent, Study 1
[39] = RMA 12908, Water Solvent, Study 2
[40] = RMA 12908, composition of Example 5
[41] = RMA 13399, Formulation Buffer Solvent, Study 1
[42] = RMA 13399, Formulation Buffer Solvent, Study 2
[43] = RMA 13399, Water Solvent, Study 1
[44] = RMA 13399, Water Solvent, Study 2
[45] = UD 738, composition of Example 5
[46] = XMP.629 composition of Example 5 (Table 12), P. acnes strains of Table 7

CC(C)C[C@@H](NC(=O)[C@H](N)CCCCN)C(=O)N[C@H](Cc1ccccc1)C(=O)N[C@H](CCCNC(=N)N)C(=O)N[C@H](Cc1cccc2ccccc12)C(=O)N[C@H](CCC(N)=O)C(=O)N[C@H](C)C(=O)N[C@H](CCCCN)C(=O)N[C@H](Cc1cccc2ccccc12)C(N)=O [XMP.629, NH2-lys-leu-phe-arg-(3-(1-naphthyl)-ala)-gln-ala-lys-(3-(1-naphthyl)-ala)-CONH2] (H-[dK][dL][dF][dR][d1Nal][dQ][dA][dK][d1Nal]-NH2)
0.95 µg/mL: MIC Geo. Mean (P. acnes; [18])
1.657 L/kg: Vss (volume of distribution at steady state) ([2]; rat)
1.92 min: t1/2α (α half-life) ([2]; rat)
13.8 min: t1/2 (average half-life) ([2]; rat)
358.7 g plasma/hr/kg: CL (clearance) ([2]; male Sprague-Dawley rats, three compartment model)
0.5 µg/mL: MIC (P. acnes; [3]) | MIC (P. acnes; [8]) | MIC (P. acnes; [17]) | MIC (P. acnes; [22]) | MIC (P. acnes; [26]) | MIC (P. acnes; [41]) | MIC (P. acnes; [45])
64.0 µg/mL: Minimum Inhibitory Concentrations (Serratia marcescens; Serratia marcescens 13880)
8.00 µg/mL: Minimum Inhibitory Concentrations (Pseudomonas aeruginosa; Pseudomonas aeruginosa 9027) | Minimum Inhibitory Concentrations (Pseudomonas aeruginosa; Pseudomonas aeruginosa 19660) | Minimum Inhibitory Concentrations (Pseudomonas aeruginosa; Pseudomonas aeruginosa XS-65 (MDR)) | Minimum Inhibitory Concentrations (Klebsiella pneumoniae; Klebsiella pneumoniae 29011)
32.0 µg/mL: Minimum Inhibitory Concentrations (Burkholderia cepacia) | Minimum Inhibitory Concentrations (Serratia marcescens; Serratia marcescens 14756)
498 min: t1/2γ (γ half-life) ([2]; rat)
4 µg/mL: MBC (P. acnes; [5]) | MBC (P. acnes; [13]) | MBC (P. acnes; [15]) | MBC (P. acnes; [29]) | MBC (P. acnes; [34]) | MIC (P. acnes; [34]) | MIC (P. acnes; [35]) | MBC (P. acnes; [38]) | MIC (P. acnes; [38]) | MBC (P. acnes; [39]) | MBC (P. acnes; [43]) | MBC (P. acnes; [44]) | MIC (P. acnes; [44])
0.121 L/kg: Vc (volume of distribution of the central compartment) ([2]; rat)
4.00 µg/mL: Minimum Inhibitory Concentrations (Pseudomonas aeruginosa; Pseudomonas aeruginosa 27853) | Minimum Inhibitory Concentrations (Escherichia coli; Escherichia coli 07:K1) | Minimum Inhibitory Concentrations (Porphyromonas gingivalis) | Minimum Inhibitory Concentrations [1] | Minimum Inhibitory Concentrations (Salmonella ryphimurium)
0.25-2: MBC Range (P. acnes; [20]) | MBC Range (P. acnes; Propionibacterium acnes, 36 strains/clinical isolates)
0.50 µg/mL: MBC (P. acnes; [4])
2.49 μg equivalents/g: C0 (extrapolated plasma concentration at time 0) ([2]; rat)
1-2: MBC Range (P. acnes; [19])
46.2 min: t1/2β (β half-life) ([2]; rat)
2.3 µg/mL: MBC Geo. Mean (P. acnes; [18])
16.0 µg/mL: Minimum Inhibitory Concentrations (Bacteroides fragilis)
1 µg/mL: MBC (P. acnes; [3]) | MIC (P. acnes; [4]) | MIC (P. acnes; [7]) | MBC (P. acnes; [8]) | MBC (P. acnes; [9]) | MIC (P. acnes; [9]) | MIC (P. acnes; [12]) | MIC (P. acnes; [13]) | MIC (P. acnes; [14]) | MIC (P. acnes; [16]) | MIC90, XMP.629 data reported as MBC values (P. acnes; P. acnes) | MBC50 (P. acnes; [19]) | MBC50 (P. acnes; [20]) | MBC50 (P. acnes; [21]) | MBC (P. acnes; [22]) | MIC (P. acnes; [23]) | MIC (P. acnes; [24]) | MBC (P. acnes; [26]) | MIC (P. acnes; [27]) | MIC (P. acnes; [28]) | MIC (P. acnes; [31]) | MIC (P. acnes; [40]) | MBC (P. acnes; [41])
2 µg/mL: MIC (P. acnes; [5]) | MBC (P. acnes; [6]) | MIC (P. acnes; [6]) | MBC (P. acnes; [7]) | MBC (P. acnes; [10]) | MIC (P. acnes; [10]) | MBC (P. acnes; [11]) | MIC (P. acnes; [11]) | MBC (P. acnes; [12]) | MBC (P. acnes; [14]) | MIC (P. acnes; [15]) | MBC (P. acnes; [16]) | MBC (P. acnes; [17]) | MBC90 (P. acnes; [19]) | MBC90 (P. acnes; [20]) | MBC90 (P. acnes; [21]) | MBC (P. acnes; [23]) | MBC (P. acnes; [24]) | MBC (P. acnes; [25]) | MIC (P. acnes; [25]) | MBC (P. acnes; [27]) | MBC (P. acnes; [28]) | MIC (P. acnes; [29]) | MBC (P. acnes; [30]) | MIC (P. acnes; [30]) | MBC (P. acnes; [31]) | MBC (P. acnes; [32]) | MIC (P. acnes; [32]) | MBC (P. acnes; [33]) | MIC (P. acnes; [33]) | MBC (P. acnes; [35]) | MBC (P. acnes; [36]) | MIC (P. acnes; [36]) | MBC (P. acnes; [37]) | MIC (P. acnes; [37]) | MIC (P. acnes; [39]) | MBC (P. acnes; [40]) | MBC (P. acnes; [42]) | MIC (P. acnes; [42]) | MIC (P. acnes; [43]) | MBC (P. acnes; [45]) | MBC50 (P. acnes; [46]) | MBC90 (P. acnes; [46])
2.00 µg/mL: Minimum Inhibitory Concentrations (Escherichia coli; Escherichia coli 0111:B4) | Minimum Inhibitory Concentrations (Klebsiella pneumoniae; Klebsiella pneumoniae 19645) | Minimum Inhibitory Concentrations (Prevotella intermedia)
>64 µg/mL: Minimum Inhibitory Concentrations (Proteus mirabilis)
